Data: paper PMC3792051, “Polyenylpyrrole Derivatives Inhibit NLRP3 Inflammasome Activation and Inflammatory Mediator Expression by Reducing Reactive Oxygen Species Production and Mitogen-Activated Protein Kinase Activation” (PLoS ONE, 2013)

System: LPS-activated RAW 264.7 macrophages
Assay: MAPK (ERK1/2, JNK1/2, p38) phosphorylation by Western blot
Format: cell-based, murine
Details: RAW 264.7, 20 µM 30 min, LPS 1 µg/ml 0-60 min
Description: Cells were washed twice with ice-cold phosphate-buffered saline (PBS) and lysed on ice for 5 min with lysis buffer (20 mM Tris-HCl, pH 7.5, 150 mM NaCl, 1 mM Na 2EDTA, 1 mM EGTA, 1% Triton X-100, 2.5 mM sodium pyrophosphate, 1 mM beta-glycerophosphate, 1 mM Na 3VO4, 1 µg/ml of leupeptin, 1 mM PMSF, protease inhibitor cocktail). The lysate was then centrifuged at 12,000 x g at 4 °C for 10 min and the pellet discarded. […]
Figure 5 Effect of compound 1h on ROS production and MAPK phosphorylation in LPS-activated macrophages. In (A), RAW 264.7 macrophages (5 × 10^5/ml; 1 ml) were incubated for 30 min with compound 1h (20 µM), N-acetyl cysteine (NAC; 10 mM), or DMSO (vehicle), then 2’, 7’-dichlorofluorescein diacetate (2 µM) was added for 30 min, followed by LPS (1 µg/ml) stimulation for the indicated time, then ROS levels were measured by detection of the mean fluorescence intensity (MFI) of the fluorophore carboxyl-DCF and expressing this value relative to that at time zero. In (B), RAW 264.7 macrophages (5 × 10^5/ml; 1 ml) were incubated for 30 min with compound 1h (20 µM) or DMSO, then LPS (1 µg/ml) was added and incubation continued for 0-60 min, then phosphorylation of ERK1/2, JNK1/2, and p38 was analyzed by Western blotting and expressed relative to actin expression and as a fold increase compared to the control group at 0 time. […]

## O=c1cc(O)cc(/C=C/C=C/C=C/C=C/c2[nH]ccc2Cl)o1 [compound 1h]
  Phosphorylation of ERK1/2, JNK1/2 and p38: inhibited phosphorylation of all 3 MAPKs
